The source of these data is patent US20150173356A1, “COMPOSITIONS OF VOLATILE ORGANIC COMPOUNDS AND METHODS OF USE THEREOF” (Synthetic Genomics, Inc., priority 2009, published 2015).

Assay in all cases: Petri plate (PDA) volatile bioassay, liquid in a small cup in the centre of the plate
Common to all, as to type: cell-based
Common to all, as to settings: 2.5-20 microliters in cup, sealed plate, 3 days

For one experiment, the system named is Ganoderma boninense. As to the method: (§1) To test the bioactivity, the mixture was placed in a small cup in the center of a Petri plate with potato dextrose agar (PDA) (Strobel et al., 2001 Microbiology 147: 2943-2950). The volumes of liquid tested were 0, 2.5, 5.0, 10.0 and 20 microliters as per Strobel et al., supra. Then small cubes of fungal inoculum grown on PDA were also applied to the plate. The plates were sealed with parafilm and incubated for 3 days, at which time measurements of hyphal development were made. Also, after 3 days the small plug of fungal inoculum was removed from the plate and transferred to a fresh PDA plate to determine if the test fungus was still alive (capable of growth) and this was recorded.

A further experiment relates to Phytophthora palmivora. As to the method: as §1
A further experiment concerns Pythium ultimum. As to the method: as §1

For the compound `CC(C)C(=O)O` [isobutyric acid, 2-methyl propanoic acid], the “growth inhibition (hyphal development)” value in the experiment on Ganoderma boninense, in the experiment with Phytophthora palmivora and in the experiment on Pythium ultimum was “inhibited” throughout. The “test fungus still alive (capable of growth) after transfer of inoculum plug to fresh PDA” value with Ganoderma boninense, in the experiment on Phytophthora palmivora and with Pythium ultimum was “not killed” throughout.

For `COC(=O)C(C)C` [methyl isobutyrate, methyl-2-methylpropanoate], the “growth inhibition (hyphal development)” value in the experiment on Ganoderma boninense, in the experiment on Phytophthora palmivora and in the experiment on Pythium ultimum was “no growth inhibition” throughout.
